Experimental data reported in publication PMC5218480 (PLoS ONE, 2017).

System: MV-4-11 cells
Experiment: Gene expression microarray analysis (Affymetrix PrimeView) and GSEA
Format: cell-based, human
Set-up: RFU PODN (11730768_x_at) / Fold change /veh PODN (11730768_x_at) / RFU LINC00158 (11744669_a_at) / Fold change /veh LINC00158 (11744669_a_at) / RFU DUSP10 (11751237_a_at) / Fold change /veh DUSP10 (11751237_a_at) / RFU ID3 (11757404_x_at) / Fold change /veh ID3 (11757404_x_at) / RFU PLEKHG5 (11737974_s_at) / Fold change /veh PLEKHG5 (11737974_s_at) / RFU LRRC4B (11730491_at) / Fold change /veh LRRC4B (11730491_at) / RFU GIMAP4 (11747438_a_at) / Fold change /veh GIMAP4 (11747438_a_at) / RFU KRT8 (11758183_x_at) / Fold change /veh KRT8 (11758183_x_at) / RFU CNN1 (11734310_a_at) / Fold change /veh CNN1 (11734310_a_at) / RFU VPS37D (11726825_at) / Fold change /veh VPS37D (11726825_at) / RFU C10orf10 (11716522_x_at) / Fold change /veh C10orf10 (11716522_x_at) / RFU KIR2DL2 /// KIR2DL4 /// KIR2DL5A /// KIR2DL5B /// KIR2DS1 /// KIR2DS2 /// KIR2DS3 /// KIR2DS4 /// KIR3DL3 /// KIR3DL3 /// KIR3DS1 (11738374_at) / Fold change /veh KIR2DL2 /// KIR2DL4 /// KIR2DL5A /// KIR2DL5B /// KIR2DS1 /// KIR2DS2 /// KIR2DS3 /// KIR2DS4 /// KIR3DL3 /// KIR3DL3 /// KIR3DS1 (11738374_at) / RFU C1QL1 (11718748_at) / Fold change /veh C1QL1 (11718748_at) / RFU TMPRSS4 (11747572_a_at) / Fold change /veh TMPRSS4 (11747572_a_at) / RFU HAMP (11756126_x_at) / Fold change /veh HAMP (11756126_x_at) / RFU RNFT2 (11725882_a_at) / Fold change /veh RNFT2 (11725882_a_at) / RFU NR4A2 (11747474_a_at) / Fold change /veh NR4A2 (11747474_a_at) / RFU ABCC12 (11746883_a_at) / Fold change /veh ABCC12 (11746883_a_at) / RFU TMEM136 (11760407_x_at) / Fold change /veh TMEM136 (11760407_x_at) / RFU CLDN22 /// WWC2 (11732394_at) / Fold change /veh CLDN22 /// WWC2 (11732394_at) / RFU HLA-DPB1 (11760878_x_at) / Fold change /veh HLA-DPB1 (11760878_x_at) / RFU SPINT1 (11716480_a_at) / Fold change /veh SPINT1 (11716480_a_at) / RFU GAP43 (11754022_s_at) / Fold change /veh GAP43 (11754022_s_at) / RFU A4GNT (11735810_at) / Fold change /veh A4GNT (11735810_at) / RFU PRB3 (11715151_x_at) / Fold change /veh PRB3 (11715151_x_at) / RFU TUBB4B (11761932_at) / Fold change /veh TUBB4B (11761932_at) / RFU CAPN14 (11732068_a_at) / Fold change /veh CAPN14 (11732068_a_at) / RFU TMCC2 (11721928_a_at) / Fold change /veh TMCC2 (11721928_a_at) / RFU IRGQ (11745062_a_at) / Fold change /veh IRGQ (11745062_a_at) / RFU FAM174B (11720279_a_at) / Fold change /veh FAM174B (11720279_a_at) / RFU TMPRSS4 (11748680_a_at) / Fold change /veh TMPRSS4 (11748680_a_at) / RFU FAM212B (11763350_a_at) / Fold change /veh FAM212B (11763350_a_at) / RFU PLEKHG5 (11743358_a_at) / Fold change /veh PLEKHG5 (11743358_a_at) / RFU ZSCAN30 (11745921_a_at) / Fold change /veh ZSCAN30 (11745921_a_at) / RFU CMKLR1 (11741424_a_at) / Fold change /veh CMKLR1 (11741424_a_at) / RFU LOC101060620 /// MAPK8IP1 (11723275_at) / Fold change /veh LOC101060620 /// MAPK8IP1 (11723275_at) / RFU SPTSSB (11747773_x_at) / Fold change /veh SPTSSB (11747773_x_at) / RFU PRSS12 (11739890_at) / Fold change /veh PRSS12 (11739890_at) / RFU BIN1 (11741810_x_at) / Fold change /veh BIN1 (11741810_x_at) / RFU WNT11 (11732464_a_at) / Fold change /veh WNT11 (11732464_a_at) / RFU C10orf10 (11716521_a_at) / Fold change /veh C10orf10 (11716521_a_at) / RFU C5orf56 (11738089_at) / Fold change /veh C5orf56 (11738089_at) / RFU CYB561 (11721691_x_at) / Fold change /veh CYB561 (11721691_x_at) / RFU ANKRD19P (11752326_a_at) / Fold change /veh ANKRD19P (11752326_a_at) / RFU OR2T12 /// OR2T33 /// OR2T8 (11738714_s_at) / Fold change /veh OR2T12 /// OR2T33 /// OR2T8 (11738714_s_at) / RFU VCAN (11748164_a_at) / Fold change /veh VCAN (11748164_a_at) / RFU JSRP1 (11732532_at) / Fold change /veh JSRP1 (11732532_at) / RFU KRTAP10-11 (11738290_x_at) / Fold change /veh KRTAP10-11 (11738290_x_at) / RFU MYO3A (11730013_a_at) / Fold change /veh MYO3A (11730013_a_at) / RFU EBF3 (11725865_a_at) / Fold change /veh EBF3 (11725865_a_at) / RFU CAMK2N1 (11719241_x_at) / Fold change /veh CAMK2N1 (11719241_x_at) / RFU C5orf56 (11738088_a_at) / Fold change /veh C5orf56 (11738088_a_at) / RFU OLFML3 (11715873_a_at) / Fold change /veh OLFML3 (11715873_a_at) / RFU LOC100653217 /// NTM (11731650_a_at) / Fold change /veh LOC100653217 /// NTM (11731650_a_at) / RFU MAPK11 (11762145_a_at) / Fold change /veh MAPK11 (11762145_a_at) / RFU FIZ1 (11724087_x_at) / Fold change /veh FIZ1 (11724087_x_at) / RFU OASL (11726364_x_at) / Fold change /veh OASL (11726364_x_at) / RFU SOX15 (11748057_x_at) / Fold change /veh SOX15 (11748057_x_at) / RFU CD79A (11719716_a_at) / Fold change /veh CD79A (11719716_a_at) / RFU HIST1H1D (11736915_at) / Fold change /veh HIST1H1D (11736915_at) / RFU CASKIN2 (11723855_a_at) / Fold change /veh CASKIN2 (11723855_a_at) / RFU LOC730098 (11760151_x_at) / Fold change /veh LOC730098 (11760151_x_at) / RFU OR4N2 (11742367_at) / Fold change /veh OR4N2 (11742367_at) / RFU PRRT2 (11749266_a_at) / Fold change /veh PRRT2 (11749266_a_at) / RFU SNX32 (11753110_a_at) / Fold change /veh SNX32 (11753110_a_at) / RFU CDHR5 (11726645_a_at) / Fold change /veh CDHR5 (11726645_a_at) / RFU RCAN1 (11760418_a_at) / Fold change /veh RCAN1 (11760418_a_at) / RFU FAM167A (11723789_a_at) / Fold change /veh FAM167A (11723789_a_at) / RFU FAM26E (11764081_at) / Fold change /veh FAM26E (11764081_at) / RFU ISYNA1 (11749810_s_at) / Fold change /veh ISYNA1 (11749810_s_at) / RFU ACY1 (11761880_at) / Fold change /veh ACY1 (11761880_at) / RFU 11764098_at / Fold change /veh 11764098_at / RFU SAMD14 (11745864_x_at) / Fold change /veh SAMD14 (11745864_x_at) / RFU NPB (11741838_a_at) / Fold change /veh NPB (11741838_a_at) / RFU TMPRSS6 (11731388_a_at) / Fold change /veh TMPRSS6 (11731388_a_at) / RFU KRTAP10-2 (11738614_at) / Fold change /veh KRTAP10-2 (11738614_at) / RFU ARHGAP8 /// PRR5-ARHGAP8 (11727945_x_at) / Fold change /veh ARHGAP8 /// PRR5-ARHGAP8 (11727945_x_at) / RFU KRTAP5-7 /// NADSYN1 (11734609_at) / Fold change /veh KRTAP5-7 /// NADSYN1 (11734609_at) / RFU RASL12 (11751679_a_at) / Fold change /veh RASL12 (11751679_a_at) / RFU CDKN2B (11736163_a_at) / Fold change /veh CDKN2B (11736163_a_at) / RFU PRF1 (11729649_at) / Fold change /veh PRF1 (11729649_at) / RFU, ZNF638 /// ZNF638-IT1 / Fold change vs veh, ZNF638 /// ZNF638-IT1 / RFU, PANK3 / Fold change vs veh, PANK3 / RFU, SH3YL1 / Fold change vs veh, SH3YL1 / RFU, ZEB2 / Fold change vs veh, ZEB2 / RFU, NRIP1 / Fold change vs veh, NRIP1 / RFU, PTTG1IP / Fold change vs veh, PTTG1IP / RFU, CAPN2 / Fold change vs veh, CAPN2 / RFU, MED14 / Fold change vs veh, MED14 / RFU, SNORA58 / Fold change vs veh, SNORA58 / RFU, C1orf63 / Fold change vs veh, C1orf63 / RFU, LRRFIP1 / Fold change vs veh, LRRFIP1 / RFU, NDUFAF7 / Fold change vs veh, NDUFAF7 / RFU, SLC12A2 / Fold change vs veh, SLC12A2 / RFU, IBTK / Fold change vs veh, IBTK / RFU, ESF1 / Fold change vs veh, ESF1 / Fold change vs veh, TMEM50B / RFU, TAOK1 / Fold change vs veh, TAOK1 / RFU, ACBD3 / Fold change vs veh, ACBD3 / RFU, TMA16 / Fold change vs veh, TMA16 / RFU, RWDD3 / Fold change vs veh, RWDD3 / RFU, BCAT1 / Fold change vs veh, BCAT1 / RFU, EDEM3 / Fold change vs veh, EDEM3 / RFU, TMEM33 / Fold change vs veh, TMEM33 / RFU, WDR75 / Fold change vs veh, WDR75 / RFU, AHCTF1 / Fold change vs veh, AHCTF1 / RFU, TFRC / Fold change vs veh, TFRC / RFU, ZDHHC17 / Fold change vs veh, ZDHHC17 / RFU, NOM1 / Fold change vs veh, NOM1 / RFU, ARL8B / Fold change vs veh, ARL8B / RFU, ZBTB11 / Fold change vs veh, ZBTB11 / RFU, TAMM41 / Fold change vs veh, TAMM41 / RFU, KIAA1704 /// LOC100996395 / Fold change vs veh, KIAA1704 /// LOC100996395 / RFU, ING1 / Fold change vs veh, ING1 / RFU, TRMT61B / Fold change vs veh, TRMT61B / RFU, FUBP3 / Fold change vs veh, FUBP3 / RFU, TP53 / Fold change vs veh, TP53 / RFU, TNKS2 / Fold change vs veh, TNKS2 / RFU, ZFP14 / Fold change vs veh, ZFP14 / RFU, ACTR2 / Fold change vs veh, ACTR2 / RFU, PPP3R1 / Fold change vs veh, PPP3R1 / RFU, PIK3R1 / Fold change vs veh, PIK3R1 / RFU, HNRNPA1 / Fold change vs veh, HNRNPA1 / RFU, RNF170 / Fold change vs veh, RNF170 / RFU, ZNF28 / Fold change vs veh, ZNF28 / RFU, RNGTT / Fold change vs veh, RNGTT / RFU, OGT / Fold change vs veh, OGT / RFU, BRD1 / Fold change vs veh, BRD1 / RFU, MARS / Fold change vs veh, MARS / RFU, ZNF655 / Fold change vs veh, ZNF655 / RFU, FAHD1 / Fold change vs veh, FAHD1 / RFU, BDP1 / Fold change vs veh, BDP1 / RFU, LRRCC1 / Fold change vs veh, LRRCC1 / RFU, ARID1A / Fold change vs veh, ARID1A / RFU, ZNF146 / Fold change vs veh, ZNF146 / RFU, ZNF330 / Fold change vs veh, ZNF330 / RFU, GPN3 / Fold change vs veh, GPN3 / RFU, C9orf123 / Fold change vs veh, C9orf123 / RFU, N4BP2L2 / Fold change vs veh, N4BP2L2 / RFU, ARFIP1 / Fold change vs veh, ARFIP1 / RFU, FAM179B / Fold change vs veh, FAM179B / RFU, BCL10 / Fold change vs veh, BCL10 / RFU, UHRF1BP1L / Fold change vs veh, UHRF1BP1L / RFU, BET1 / Fold change vs veh, BET1 / RFU, CNOT2 / Fold change vs veh, CNOT2 / RFU, ZNF268 / Fold change vs veh, ZNF268 / Fold change vs veh, ZNF507 / RFU, DGCR2 / Fold change vs veh, DGCR2 / RFU, WDSUB1 / Fold change vs veh, WDSUB1 / Fold change vs veh, HSP90B1 /// MIR3652 / RFU, ADSS / Fold change vs veh, ADSS / RFU, GK / Fold change vs veh, GK / RFU, ZNF148 / Fold change vs veh, ZNF148 / RFU, TAF9 / Fold change vs veh, TAF9 / RFU, SLC1A5 / Fold change vs veh, SLC1A5 / RFU, SLMO2 / Fold change vs veh, SLMO2 / RFU, ABCC4 / Fold change vs veh, ABCC4 / RFU, LOC101060439 /// RAP1B / Fold change vs veh, LOC101060439 /// RAP1B / RFU, RFX7 / Fold change vs veh, RFX7 / RFU, GTPBP10 / Fold change vs veh, GTPBP10 / RFU, CNEP1R1 / Fold change vs veh, CNEP1R1 / RFU, BIVM-ERCC5 /// ERCC5 / Fold change vs veh, BIVM-ERCC5 /// ERCC5 / RFU, ILF3 / Fold change vs veh, ILF3 / RFU 11762660_at / Fold change /veh 11762660_at / RFU VCAN (11757783_s_at) / Fold change /veh VCAN (11757783_s_at) / RFU DDX43 (11728927_at) / Fold change /veh DDX43 (11728927_at) / RFU KRT8 (11758188_x_at) / Fold change /veh KRT8 (11758188_x_at) / RFU NKD1 (11759106_at) / Fold change /veh NKD1 (11759106_at) / RFU SRD5A1 (11742802_a_at) / Fold change /veh SRD5A1 (11742802_a_at) / RFU TPSAB1 /// TPSB2 (11721975_s_at) / Fold change /veh TPSAB1 /// TPSB2 (11721975_s_at) / RFU GSTM3 (11746129_a_at) / Fold change /veh GSTM3 (11746129_a_at) / RFU IL23R (11737362_x_at) / Fold change /veh IL23R (11737362_x_at) / RFU TMEM51 (11727254_a_at) / Fold change /veh TMEM51 (11727254_a_at) / RFU PIWIL2 (11732686_x_at) / Fold change /veh PIWIL2 (11732686_x_at) / RFU ORM1 (11744905_x_at) / Fold change /veh ORM1 (11744905_x_at) / RFU CCDC152 (11743942_at) / Fold change /veh CCDC152 (11743942_at) / RFU ECM1 (11717891_a_at) / Fold change /veh ECM1 (11717891_a_at) / RFU IL23R (11748794_a_at) / Fold change /veh IL23R (11748794_a_at) / RFU TNFAIP8L3 (11732012_x_at) / Fold change /veh TNFAIP8L3 (11732012_x_at) / RFU MBOAT4 (11741988_at) / Fold change /veh MBOAT4 (11741988_at) / RFU 11764193_at / Fold change /veh 11764193_at / RFU TMEM53 (11763286_at) / Fold change /veh TMEM53 (11763286_at) / RFU MAGEB2 (11727129_at) / Fold change /veh MAGEB2 (11727129_at) / RFU TMEM200A (11744735_a_at) / Fold change /veh TMEM200A (11744735_a_at) / RFU CCDC152 (11751479_a_at) / Fold change /veh CCDC152 (11751479_a_at) / RFU FAM211A (11726209_a_at) / Fold change /veh FAM211A (11726209_a_at) / RFU RGS16 (11746705_a_at) / Fold change /veh RGS16 (11746705_a_at) / RFU VCAN (11755009_s_at) / Fold change /veh VCAN (11755009_s_at) / RFU RHOB (11743442_s_at) / Fold change /veh RHOB (11743442_s_at) / RFU RGS16 (11720943_a_at) / Fold change /veh RGS16 (11720943_a_at) / RFU RGS16 (11720944_at) / Fold change /veh RGS16 (11720944_at) / RFU, VPS4B / Fold change vs veh, VPS4B / RFU, CREB1 / Fold change vs veh, CREB1 / RFU, DNAJC13 / Fold change vs veh, DNAJC13 / RFU, GNAQ / Fold change vs veh, GNAQ / RFU, CDK5R1 / Fold change vs veh, CDK5R1 / RFU, ZRANB3 / Fold change vs veh, ZRANB3 / RFU, CUL4A / Fold change vs veh, CUL4A / RFU, CCNY / Fold change vs veh, CCNY / RFU, UFL1 / Fold change vs veh, UFL1 / RFU, COG3 / Fold change vs veh, COG3 / RFU, DIAPH2 / Fold change vs veh, DIAPH2 / RFU, SKA2 / Fold change vs veh, SKA2 / RFU, AFF3 / Fold change vs veh, AFF3 / RFU, LMF1 / Fold change vs veh, LMF1 / RFU, IPO11 / Fold change vs veh, IPO11 / RFU, DFFB / Fold change vs veh, DFFB / RFU, FOXP1 / Fold change vs veh, FOXP1 / RFU, CARD8 / Fold change vs veh, CARD8 / RFU, STRN3 / Fold change vs veh, STRN3 / RFU, ADK / Fold change vs veh, ADK / RFU, RASSF2 / Fold change vs veh, RASSF2 / RFU, WIPF1 / Fold change vs veh, WIPF1 / RFU, LARP1B / Fold change vs veh, LARP1B / RFU, RASA1 / Fold change vs veh, RASA1 / RFU, RB1 / Fold change vs veh, RB1 / RFU, PPFIA1 / Fold change vs veh, PPFIA1 / RFU, MAT2A / Fold change vs veh, MAT2A / RFU, CCT5 / Fold change vs veh, CCT5 / RFU, WDR92 / Fold change vs veh, WDR92 / RFU, CUX1 / Fold change vs veh, CUX1 / RFU, TTC7A / Fold change vs veh, TTC7A / RFU, TMEM135 / Fold change vs veh, TMEM135 / RFU, DEPTOR / Fold change vs veh, DEPTOR / RFU, CPM / Fold change vs veh, CPM / RFU, DNAJB6 / Fold change vs veh, DNAJB6 / RFU, CACNA2D3 / Fold change vs veh, CACNA2D3 / RFU, DTX4 / Fold change vs veh, DTX4 / RFU, TFCP2 / Fold change vs veh, TFCP2 / RFU, GMCL1 /// GMCL1P1 / Fold change vs veh, GMCL1 /// GMCL1P1 / RFU, AEBP2 / Fold change vs veh, AEBP2 / RFU, SNHG1 /// SNORD22 /// SNORD25 /// SNORD26 /// SNORD27 /// SNORD28 /// SNORD29 /// SNORD31 / Fold change vs veh, SNHG1 /// SNORD22 /// SNORD25 /// SNORD26 /// SNORD27 /// SNORD28 /// SNORD29 /// SNORD31 / Fold change (Aza/veh), C12orf56 (ProbeSet 11735607_a_at) / Fold change (ACY-1035/veh), C12orf56 (ProbeSet 11735607_a_at) / Fold change (Aza/veh), FGFR1OP (ProbeSet 11751329_s_at) / Fold change (ACY-1035/veh), FGFR1OP (ProbeSet 11751329_s_at) / Fold change (Aza/veh), VPS36 (ProbeSet 11739960_a_at) / Fold change (ACY-1035/veh), VPS36 (ProbeSet 11739960_a_at) / RFU SYPL1 (11715823_x_at) / Fold change /veh SYPL1 (11715823_x_at) / RFU IGFBP7 (11715501_s_at) / Fold change /veh IGFBP7 (11715501_s_at) / RFU REEP3 (11722064_at) / Fold change /veh REEP3 (11722064_at) / RFU IGLL1 (11728026_x_at) / Fold change /veh IGLL1 (11728026_x_at): dose or concentration left out as unconfirmed
Settings: ProbeSet 11725902_s_at; LIST D

Nc1ccc(-c2cccs2)cc1NC(=O)c1ccc2c(c1)cc(C1CC1)n2CCN1CCOCC1 [ACY-1035]
RFU, TMEM135: 107.94 RFU
